# Columns and labels:
# [1] = Inhibition of human recombinant C-terminal subunit of maltase-glucoamylase-N20 by Lineweaver-Burk plot analysis
# [2] = biological target: T1, Sucrase-isomaltase, intestinal (Homo sapiens, UniProt P14410); assay: Inhibition of human recombinant N-terminal Sucrase-isomaltase by Lineweaver-Burk plot analysis
# [3] = biological target: T1, Sucrase-isomaltase, intestinal; assay: Inhibition of human recombinant C-terminal Sucrase-isomaltase by Lineweaver-Burk plot analysis
# [4] = Inhibition of human recombinant C-terminal subunit of maltase-glucoamylase-N2 by Lineweaver-Burk plot analysis
# [5] = species: Homo sapiens; assay: Selectivity ratio of Ki for human recombinant N-terminal maltase-glucoamylase to Ki for human recombinant C-terminal Sucrase-isomaltase
# [6] = species: Homo sapiens; assay: Selectivity ratio of Ki for human recombinant N-terminal maltase-glucoamylase to Ki for human recombinant C-terminal subunit of maltase-glucoamylase-N2
# [7] = species: Homo sapiens; assay: Selectivity ratio of Ki for human recombinant N-terminal Sucrase-isomaltase to Ki for human recombinant C-terminal Sucrase-isomaltase
# [8] = species: Homo sapiens; assay: Selectivity ratio of Ki for human recombinant N-terminal maltase-glucoamylase to Ki for human recombinant C-terminal subunit of maltase-glucoamylase-N20
# T1 sequence (P14410 2-1007 limits assumed): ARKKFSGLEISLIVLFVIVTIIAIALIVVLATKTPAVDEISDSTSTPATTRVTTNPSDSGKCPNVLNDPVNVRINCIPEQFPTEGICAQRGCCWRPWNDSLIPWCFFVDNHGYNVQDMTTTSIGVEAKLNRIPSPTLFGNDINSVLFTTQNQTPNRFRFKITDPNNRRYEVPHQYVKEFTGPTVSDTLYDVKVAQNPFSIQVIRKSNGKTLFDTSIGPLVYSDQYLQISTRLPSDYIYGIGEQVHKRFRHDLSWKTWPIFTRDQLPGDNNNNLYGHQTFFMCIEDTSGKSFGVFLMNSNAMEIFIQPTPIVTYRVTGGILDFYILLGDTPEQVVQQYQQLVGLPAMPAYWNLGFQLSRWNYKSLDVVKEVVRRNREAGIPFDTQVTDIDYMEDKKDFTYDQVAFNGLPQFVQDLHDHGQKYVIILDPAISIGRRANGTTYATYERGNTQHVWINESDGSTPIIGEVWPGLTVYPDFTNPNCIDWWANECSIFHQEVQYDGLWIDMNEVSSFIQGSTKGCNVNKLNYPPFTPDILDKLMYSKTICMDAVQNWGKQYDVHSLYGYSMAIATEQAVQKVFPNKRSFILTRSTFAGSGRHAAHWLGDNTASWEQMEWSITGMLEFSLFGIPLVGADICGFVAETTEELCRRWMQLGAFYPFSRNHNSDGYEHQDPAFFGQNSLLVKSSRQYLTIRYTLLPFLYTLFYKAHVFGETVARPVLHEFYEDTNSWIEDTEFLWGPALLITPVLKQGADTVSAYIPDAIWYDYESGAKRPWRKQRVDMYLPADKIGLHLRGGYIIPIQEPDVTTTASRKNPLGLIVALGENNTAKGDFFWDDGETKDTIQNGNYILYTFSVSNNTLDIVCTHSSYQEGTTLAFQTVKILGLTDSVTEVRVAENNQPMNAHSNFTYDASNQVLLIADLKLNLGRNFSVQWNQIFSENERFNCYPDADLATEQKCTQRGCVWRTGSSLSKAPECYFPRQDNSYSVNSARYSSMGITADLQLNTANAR
# T1 sequence (P14410 1008-1827 limits assumed): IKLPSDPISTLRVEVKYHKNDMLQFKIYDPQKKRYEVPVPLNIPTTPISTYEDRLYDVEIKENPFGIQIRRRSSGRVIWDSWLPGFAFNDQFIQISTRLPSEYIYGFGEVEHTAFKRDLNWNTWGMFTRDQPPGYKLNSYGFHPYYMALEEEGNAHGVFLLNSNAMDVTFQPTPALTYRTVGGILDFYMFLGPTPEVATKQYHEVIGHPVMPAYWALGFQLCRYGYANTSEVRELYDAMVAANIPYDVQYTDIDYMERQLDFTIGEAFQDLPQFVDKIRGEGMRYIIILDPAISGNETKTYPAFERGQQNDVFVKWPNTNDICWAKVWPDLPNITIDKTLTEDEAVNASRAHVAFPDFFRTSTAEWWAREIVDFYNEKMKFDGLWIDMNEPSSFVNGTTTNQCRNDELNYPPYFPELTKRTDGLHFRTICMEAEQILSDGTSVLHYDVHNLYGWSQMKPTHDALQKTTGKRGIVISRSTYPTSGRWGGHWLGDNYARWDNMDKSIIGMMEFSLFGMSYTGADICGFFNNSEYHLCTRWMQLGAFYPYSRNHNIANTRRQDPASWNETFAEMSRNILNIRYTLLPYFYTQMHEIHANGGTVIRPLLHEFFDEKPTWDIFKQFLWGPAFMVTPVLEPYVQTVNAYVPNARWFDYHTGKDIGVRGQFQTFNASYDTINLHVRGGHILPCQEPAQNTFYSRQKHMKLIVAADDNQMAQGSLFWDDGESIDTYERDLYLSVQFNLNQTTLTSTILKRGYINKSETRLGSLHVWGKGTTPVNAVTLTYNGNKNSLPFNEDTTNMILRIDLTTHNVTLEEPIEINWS
Ki [1] [µM],Ki [2] [µM],Ki [3] [µM],Ki [4],Ratio Ki [5],Ratio Ki [6],Ratio Ki [7],Ratio Ki [8],Ki ([4]; read-out: Ki) [µM],Structure (SMILES)
0.096,0.302,0.103,Not Active,,,,,,OC[C@@H]1[C@@H](O)[C@H](O)C[S@@+]1C[C@@H](O)[C@@H](O)[C@H](O)[C@@H](O)CO.[Cl-] [NEOPONKORANOL]
0.055,0.035,0.007,,70,10,5,10,0.06,CO[C@@H]([C@H](O)[C@@H](O)CO)[C@H](O)C[S@+]1C[C@@H](O)[C@H](O)[C@H]1CO

# From ChEMBL document CHEMBL1909635, “Selectivity of 3'-O-methylponkoranol for inhibition of N- and C-terminal maltase glucoamylase and sucrase isomaltase, potential therapeutics for digestive disorders or their sequelae” (Bioorg Med Chem Lett, 2011)
